For series [1] the following is noted: cited from earlier work. An excerpt: The slower hydrolysis rate of homoarginine-containing peptides compared with their arginine-containing counterparts depend ...
For series [2], the system named is HaCaT cells. Description: LDH release cytotoxicity assay. Format: cell-based, human. The settings on record: 24 h, n = 2. As for the experimental part: The cell line of human immortalized keratinocytes (HaCaT) was obtained from American Type Culture Collection (ATCC, Manassas, VA, USA) and cultured in DMEM (Gibco, Life Technologies, Paisley, UK) supplemented with 10% heat-inactivated fetal bovine serum (FBS) and PEST (100 U/mL penicillin and 100 U/mL streptomycin) at 37 °C in humidified 5% CO2 atmosphere. Cells were passaged every 4–5 days. To assess the effect of peptides on the integrity of the plasma membrane, the LDH release assay was performed using the CytoTox96 nonradioactive cytotoxicity assay kit (Promega, Madison, WI, USA) according to the manufacturer’s instructions. Cytotoxicity was calculated with the formula: % cytotoxicity = 100 × (experimental LDH release/maximum LDH release), where maximum LDH release occurs after the addition of lysis solution (Triton X-100). Relative amounts of LDH release were measured (absorbance at 490 nm) using FlexStation 3 Multimode Microplate Reader (Molecular Device, Wokingham, UK). All assays were performed in duplicate.
Background: Release of lactate dehydrogenase indicates damage to the cell membrane.

For series [3], the target named is cathepsin G (Homo sapiens, UniProt P08311). As for the experimental part:
(§1) After incubation samples were immediately frozen at −80 °C. Samples were separated on SDS-PAGE under denaturing condition in 4–16% gels. After separation, the gels underwent colloid Coomassie staining.

The target in series [4] is aureolysin (Staphylococcus aureus, UniProt P81177). Description: Degradation by protease, SDS-PAGE. The settings on record: 5 μg peptide, 0.05 μg protease, PBS, 25 μL, 37 °C, 1 h and 18 h, Coomassie. As for the experimental part:
as §1

Series [5] addresses V8 protease (Staphylococcus aureus, UniProt P0C1U8). Description: Degradation by protease, SDS-PAGE. The settings on record: 5 μg peptide, 0.05 μg protease, PBS, 25 μL, 37 °C, 1 h and 18 h, Coomassie. As to the method: as §1
The subject of series [6] is venous leg ulcers. The settings on record: patients with venous leg ulcers; cited from earlier work. An excerpt: Current research is partly focused on peptide-based compounds.
Series [7] concerns the target neutrophil elastase (Homo sapiens, UniProt P08246). The settings on record: 5 μg peptide, 0.05 μg protease, PBS, 25 μL, 37 °C, 1 h and 18 h; SDS-PAGE, Coomassie. As for the experimental part:
as §1

Series [8] has as its system E. coli. It counts as cell-based, Escherichia coli ATCC 25922. As for the experimental part: (§2) Escherichia coli ATCC 25922 and Pseudomonas aeruginosa (clinical isolate) were inoculated from stocks into 20 mL LB Broth Lennox, while Staphylococcus aureus Δaur (8325-4 Δaur) into 20 mL TSB and grown overnight at 37 °C under constant rotation (180 rpm) to a mid-logarithmic growth phase. Then they were centrifuged at 5000× g for 5 min, washed in PBS, and resuspended in PBS to the desired OD (600 nm).
(§3) Mueller-Hinton broth (MHB, Sigma-Aldrich) was used as the working medium for all bacterial strains. Briefly, inoculum was prepared from freshly grown cultures of bacteria being at their exponential phase of growth. Each well of 96-well plates containing 100 μL of serially diluted peptides in PBS at desired concentration was inoculated with 100 μL of 1 × 10^5 (CFU) mL^−1 of bacterial suspensions. Then, plates were incubated overnight at 37 °C and absorbance was read at 590 nm in a Flex Station 3 multi-mode microplate reader (Molecular Devices). An absorbance reading in wells without a peptide representing unrestrained bacterial growth was taken as positive control (100% bacterial survival). Readings in wells without bacteria were taken as negative controls. All measurements were run in triplicates.

Series [9] has as its system P. aeruginosa. Format: cell-based, Pseudomonas aeruginosa (clinical isolate). As for the experimental part: as §2, §3
In series [10] the target is recombinant human PAD4 (Homo sapiens, UniProt Q9UM07).
Sequence of recombinant human PAD4 (Q9UM07 whole entry): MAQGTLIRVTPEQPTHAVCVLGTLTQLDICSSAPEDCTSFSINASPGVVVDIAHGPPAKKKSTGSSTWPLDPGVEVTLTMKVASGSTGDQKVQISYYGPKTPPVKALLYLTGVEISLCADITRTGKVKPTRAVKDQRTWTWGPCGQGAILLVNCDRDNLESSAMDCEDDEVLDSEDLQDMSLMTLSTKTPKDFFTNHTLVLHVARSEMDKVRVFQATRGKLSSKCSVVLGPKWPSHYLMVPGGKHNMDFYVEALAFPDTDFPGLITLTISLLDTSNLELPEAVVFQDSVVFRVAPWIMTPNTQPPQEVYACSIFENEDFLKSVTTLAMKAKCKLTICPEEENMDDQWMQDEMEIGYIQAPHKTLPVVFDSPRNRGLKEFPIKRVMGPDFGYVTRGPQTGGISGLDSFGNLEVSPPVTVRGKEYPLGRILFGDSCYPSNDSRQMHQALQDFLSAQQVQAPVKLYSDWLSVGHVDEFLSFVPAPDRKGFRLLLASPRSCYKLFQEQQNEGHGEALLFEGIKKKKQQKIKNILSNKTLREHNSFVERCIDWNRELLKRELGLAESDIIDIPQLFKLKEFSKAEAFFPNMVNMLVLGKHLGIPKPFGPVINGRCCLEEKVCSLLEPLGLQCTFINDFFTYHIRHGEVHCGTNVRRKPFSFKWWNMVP
Method: PAD4 activity was determined on N-α-benzoyl-L-arginine ethyl ester hydrochloride (BAEE) substrate with colorimetric assay [33].
Citrullination was terminated by snap-freezing the samples.
Reaction was terminated by addition of TFA (final concentration 0.1%) (Sigma) and samples were analyzed via HPLC. Separation was achieved on a reverse-phase column Aeris XB-C18, 3.6 μm, 4.6/150 (Phenomenex) connected to ÄKTAmicro (GE Healthcare). Peptides were eluted in the gradient of Phase A (0.1% TFA in water) and Phase B (80% acetonitrile, 0.08% TFA in water) and monitored at 215 nm.

Consider two compounds from article PMC7730452, “Citrullination-Resistant LL-37 Is a Potent Antimicrobial Agent in the Inflammatory Environment High in Arginine Deiminase Activity” (International Journal of Molecular Sciences, 2020).

In brackets after ≈: the same amount, converted by molar mass. Read-outs that look alike come from different tables or passages of the source.

Sequence of V8 protease (P0C1U8 69-336): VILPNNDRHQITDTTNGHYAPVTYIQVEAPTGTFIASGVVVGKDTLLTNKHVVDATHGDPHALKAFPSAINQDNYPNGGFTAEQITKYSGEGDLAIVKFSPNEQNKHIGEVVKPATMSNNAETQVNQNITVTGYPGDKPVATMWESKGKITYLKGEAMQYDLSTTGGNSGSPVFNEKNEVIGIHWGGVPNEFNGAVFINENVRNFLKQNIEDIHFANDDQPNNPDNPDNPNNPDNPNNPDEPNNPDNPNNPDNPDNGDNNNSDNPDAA
Sequence of aureolysin (P81177 209-509): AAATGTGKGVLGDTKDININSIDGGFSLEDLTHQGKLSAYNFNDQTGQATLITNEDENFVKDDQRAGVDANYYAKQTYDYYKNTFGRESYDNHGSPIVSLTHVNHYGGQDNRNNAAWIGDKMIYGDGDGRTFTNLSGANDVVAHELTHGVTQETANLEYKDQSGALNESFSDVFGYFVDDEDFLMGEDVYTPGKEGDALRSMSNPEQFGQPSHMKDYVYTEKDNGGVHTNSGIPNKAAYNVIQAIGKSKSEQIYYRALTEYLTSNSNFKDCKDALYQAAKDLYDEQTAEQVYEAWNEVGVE
Sequence of cathepsin G (P08311 21-255): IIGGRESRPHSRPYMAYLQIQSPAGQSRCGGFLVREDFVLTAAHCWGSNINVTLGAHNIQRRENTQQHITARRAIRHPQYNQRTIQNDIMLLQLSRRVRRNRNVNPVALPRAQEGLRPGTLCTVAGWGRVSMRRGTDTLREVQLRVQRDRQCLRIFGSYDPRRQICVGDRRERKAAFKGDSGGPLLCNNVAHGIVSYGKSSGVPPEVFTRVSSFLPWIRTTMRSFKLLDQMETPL
Sequence of neutrophil elastase (P08246 30-267): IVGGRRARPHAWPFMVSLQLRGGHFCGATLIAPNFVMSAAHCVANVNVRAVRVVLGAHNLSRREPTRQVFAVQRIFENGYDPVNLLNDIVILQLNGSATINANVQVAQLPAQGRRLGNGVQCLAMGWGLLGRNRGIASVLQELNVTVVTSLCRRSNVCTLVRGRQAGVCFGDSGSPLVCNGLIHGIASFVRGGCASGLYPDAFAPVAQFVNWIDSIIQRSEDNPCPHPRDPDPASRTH

As to `CC[C@H](C)[C@H](NC(=O)[C@H](CCCCN)NC(=O)[C@H](CCC(=O)O)NC(=O)[C@H](CCCCN)NC(=O)[C@H](CO)NC(=O)[C@H](CCCCN)NC(=O)[C@H](CCCNC(=N)N)NC(=O)[C@H](Cc1ccccc1)NC(=O)[C@H](Cc1ccccc1)NC(=O)[C@H](CC(=O)O)NC(=O)CNC(=O)[C@H](CC(C)C)NC(=O)[C@@H](N)CC(C)C)C(=O)NCC(=O)N[C@@H](CCCCN)C(=O)N[C@@H](CCC(=O)O)C(=O)N[C@@H](Cc1ccccc1)C(=O)N[C@@H](CCCCN)C(=O)N[C@@H](CCCNC(=N)N)C(=O)N[C@H](C(=O)N[C@H](C(=O)N[C@@H](CCC(N)=O)C(=O)N[C@@H](CCCNC(=N)N)C(=O)N[C@H](C(=O)N[C@@H](CCCCN)C(=O)N[C@@H](CC(=O)O)C(=O)N[C@@H](Cc1ccccc1)C(=O)N[C@@H](CC(C)C)C(=O)N[C@@H](CCCNC(=N)N)C(=O)N[C@@H](CC(N)=O)C(=O)N[C@@H](CC(C)C)C(=O)N[C@H](C(=O)N1CCC[C@H]1C(=O)N[C@@H](CCCNC(=N)N)C(=O)N[C@H](C(=O)N[C@@H](CCC(=O)O)C(=O)N[C@@H](CO)C(=O)O)[C@@H](C)O)C(C)C)[C@@H](C)CC)C(C)C)[C@@H](C)CC` [LL-37], the “Degradation in NETs” value in series [1] is recorded as “gradually degraded”. The “Toxicity, LDH release” value in series [2] (peptide 10 μg/mL) was “did not compromise the membrane permeability”; in [2] (peptide 25 μg/mL), “did not compromise the membrane permeability”; in [2] (peptide 75 μg/mL), “low, but still significant, release of LDH”. The “Degradation by cathepsin G” value in series [3] (5 μg peptide, 0.5 μg protease, PBS, 25 μL, 37 °C, 1 h and 18 h, SDS-PAGE, Coomassie) was “did not differ”. Besides, the Degradation by aureolysin entry in [4] was “similarly sensitive”. For the same compound, the “Degradation by V8 protease” value in series [5] is “similarly sensitive”. For the same compound, in series [6], the Safety and tolerability result was “no safety or tolerability concerns were noted”.
Regarding `CC[C@H](C)[C@H](NC(=O)[C@H](CCCCN)NC(=O)[C@H](CCC(=O)O)NC(=O)[C@H](CCCCN)NC(=O)[C@H](CO)NC(=O)[C@H](CCCCN)NC(=O)[C@H](CCCCNC(=N)N)NC(=O)[C@H](Cc1ccccc1)NC(=O)[C@H](Cc1ccccc1)NC(=O)[C@H](CC(=O)O)NC(=O)CNC(=O)[C@H](CC(C)C)NC(=O)[C@@H](N)CC(C)C)C(=O)NCC(=O)N[C@@H](CCCCN)C(=O)N[C@@H](CCC(=O)O)C(=O)N[C@@H](Cc1ccccc1)C(=O)N[C@@H](CCCCN)C(=O)N[C@@H](CCCCNC(=N)N)C(=O)N[C@H](C(=O)N[C@H](C(=O)N[C@@H](CCC(N)=O)C(=O)N[C@@H](CCCCNC(=N)N)C(=O)N[C@H](C(=O)N[C@@H](CCCCN)C(=O)N[C@@H](CC(=O)O)C(=O)N[C@@H](Cc1ccccc1)C(=O)N[C@@H](CC(C)C)C(=O)N[C@@H](CCCCNC(=N)N)C(=O)N[C@@H](CC(N)=O)C(=O)N[C@@H](CC(C)C)C(=O)N[C@H](C(=O)N1CCC[C@H]1C(=O)N[C@@H](CCCCNC(=N)N)C(=O)N[C@H](C(=O)N[C@@H](CCC(=O)O)C(=O)N[C@@H](CO)C(=O)O)[C@@H](C)O)C(C)C)[C@@H](C)CC)C(C)C)[C@@H](C)CC` [hArg-LL-37], in series [7], the “Degradation by neutrophil elastase” value was “degraded more rapidly by neutrophil elastase than LL-37”. Further, the “Degradation by cathepsin G” value in series [3] is “did not differ”. The Degradation by aureolysin result in series [4] is “similarly sensitive”. In series [5], the “Degradation by V8 protease” value is “similarly sensitive”. Moreover, the “MIC (minimal inhibitory concentration)” value in series [8] and in series [9] was 50 mg/L (≈ 11 µM) each time. Besides, in [10], the “Modification (citrullination) by PAD4” value is listed as “did not evidently modify”.
